This note sets out measurements from PMC6199744, “Development of Chemical Proteomics for the Folateome and Analysis of the Kinetoplastid Folateome” (ACS Infectious Diseases, 2018).

Common to all, as to type: binding
Assay [1] has as its target T1, HeLa cell extract proteins (Homo sapiens, UniProt O95373).
T1 construct: endogenous in cells; host or cells: HeLa cell extract

Assay [2] deals with T2, HeLa cell extract proteins (Homo sapiens, UniProt P07900).
T2 construct: endogenous in cells; host or cells: HeLa cell extract

Assay [3] concerns the target T3, HeLa cell extract proteins (Homo sapiens, UniProt Q9Y6M0).
T3 construct: endogenous in cells; host or cells: HeLa cell extract

The target of assay [4] is T4, HeLa cell extract proteins (Homo sapiens, UniProt O60313).
T4 construct: endogenous in cells; host or cells: HeLa cell extract
T4 sequence (O60313 88-960): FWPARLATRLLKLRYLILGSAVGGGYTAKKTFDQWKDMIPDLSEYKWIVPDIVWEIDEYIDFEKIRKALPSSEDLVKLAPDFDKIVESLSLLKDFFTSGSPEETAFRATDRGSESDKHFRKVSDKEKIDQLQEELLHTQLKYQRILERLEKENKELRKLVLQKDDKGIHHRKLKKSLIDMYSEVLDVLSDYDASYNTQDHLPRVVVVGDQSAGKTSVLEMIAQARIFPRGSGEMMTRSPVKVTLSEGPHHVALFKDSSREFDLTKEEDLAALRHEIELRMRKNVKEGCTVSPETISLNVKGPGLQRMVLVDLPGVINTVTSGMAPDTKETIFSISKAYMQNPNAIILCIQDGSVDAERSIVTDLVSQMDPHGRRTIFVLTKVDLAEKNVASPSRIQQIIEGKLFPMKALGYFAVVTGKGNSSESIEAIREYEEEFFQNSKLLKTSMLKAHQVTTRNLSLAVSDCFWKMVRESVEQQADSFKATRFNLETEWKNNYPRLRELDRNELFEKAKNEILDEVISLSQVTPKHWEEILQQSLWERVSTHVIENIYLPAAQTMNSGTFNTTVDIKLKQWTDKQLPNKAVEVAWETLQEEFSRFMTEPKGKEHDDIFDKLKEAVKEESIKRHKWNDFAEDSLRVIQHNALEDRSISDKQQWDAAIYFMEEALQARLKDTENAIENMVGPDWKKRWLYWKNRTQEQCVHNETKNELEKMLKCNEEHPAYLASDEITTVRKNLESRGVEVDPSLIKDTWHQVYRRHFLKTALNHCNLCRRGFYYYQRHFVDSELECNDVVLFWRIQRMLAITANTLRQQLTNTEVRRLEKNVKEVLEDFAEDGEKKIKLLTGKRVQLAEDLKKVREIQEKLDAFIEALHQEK

Assay [5] has as its target T5, HeLa cell extract proteins (Homo sapiens, UniProt P22314).
T5 construct: endogenous in cells; host or cells: HeLa cell extract
T5 sequence (P22314 1-1058): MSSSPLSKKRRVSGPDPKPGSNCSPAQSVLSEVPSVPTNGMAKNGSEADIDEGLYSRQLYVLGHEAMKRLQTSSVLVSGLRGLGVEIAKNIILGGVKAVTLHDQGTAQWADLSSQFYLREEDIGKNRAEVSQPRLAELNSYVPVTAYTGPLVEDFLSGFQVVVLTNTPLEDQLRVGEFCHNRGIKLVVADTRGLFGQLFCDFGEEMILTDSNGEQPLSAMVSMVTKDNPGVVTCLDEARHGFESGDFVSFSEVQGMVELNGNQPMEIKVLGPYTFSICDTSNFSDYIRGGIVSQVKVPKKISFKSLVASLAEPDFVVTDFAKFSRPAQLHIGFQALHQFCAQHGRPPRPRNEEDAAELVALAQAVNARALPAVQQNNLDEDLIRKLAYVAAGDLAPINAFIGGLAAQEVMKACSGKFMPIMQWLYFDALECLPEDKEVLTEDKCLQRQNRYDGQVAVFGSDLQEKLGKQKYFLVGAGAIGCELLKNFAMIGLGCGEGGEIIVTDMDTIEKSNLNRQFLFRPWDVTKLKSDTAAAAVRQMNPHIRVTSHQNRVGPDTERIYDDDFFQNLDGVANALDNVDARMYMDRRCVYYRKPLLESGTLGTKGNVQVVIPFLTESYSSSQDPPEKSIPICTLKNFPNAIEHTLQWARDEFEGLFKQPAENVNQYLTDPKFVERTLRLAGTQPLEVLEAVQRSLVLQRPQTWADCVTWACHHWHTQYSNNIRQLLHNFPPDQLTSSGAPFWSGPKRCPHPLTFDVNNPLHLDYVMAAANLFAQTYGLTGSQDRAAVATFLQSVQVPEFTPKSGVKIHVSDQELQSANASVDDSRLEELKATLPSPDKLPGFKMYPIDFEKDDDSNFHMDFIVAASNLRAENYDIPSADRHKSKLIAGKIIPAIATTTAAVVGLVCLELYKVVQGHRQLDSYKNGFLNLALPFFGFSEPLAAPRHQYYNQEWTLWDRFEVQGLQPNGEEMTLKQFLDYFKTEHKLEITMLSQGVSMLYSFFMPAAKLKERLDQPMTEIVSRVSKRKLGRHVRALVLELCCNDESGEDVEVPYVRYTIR

For assay [6], the target named is T6, HeLa cell extract proteins (Homo sapiens, UniProt P60842).
T6 construct: endogenous in cells; host or cells: HeLa cell extract
T6 sequence (P60842 whole entry): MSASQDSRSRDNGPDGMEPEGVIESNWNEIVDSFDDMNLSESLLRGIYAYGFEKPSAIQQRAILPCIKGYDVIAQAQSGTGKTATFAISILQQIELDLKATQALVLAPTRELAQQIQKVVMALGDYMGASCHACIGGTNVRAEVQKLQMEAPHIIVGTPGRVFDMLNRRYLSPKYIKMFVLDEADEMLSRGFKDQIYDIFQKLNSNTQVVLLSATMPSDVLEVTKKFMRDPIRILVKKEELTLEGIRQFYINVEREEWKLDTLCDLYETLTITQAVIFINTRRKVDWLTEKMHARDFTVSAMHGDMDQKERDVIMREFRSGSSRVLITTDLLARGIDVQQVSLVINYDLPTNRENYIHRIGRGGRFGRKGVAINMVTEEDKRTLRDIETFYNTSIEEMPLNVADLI

In assay [7] the target is T7, HeLa cell extract proteins (Homo sapiens, UniProt P07686).
T7 construct: endogenous in cells; host or cells: HeLa cell extract
T7 sequence (P07686 122-556): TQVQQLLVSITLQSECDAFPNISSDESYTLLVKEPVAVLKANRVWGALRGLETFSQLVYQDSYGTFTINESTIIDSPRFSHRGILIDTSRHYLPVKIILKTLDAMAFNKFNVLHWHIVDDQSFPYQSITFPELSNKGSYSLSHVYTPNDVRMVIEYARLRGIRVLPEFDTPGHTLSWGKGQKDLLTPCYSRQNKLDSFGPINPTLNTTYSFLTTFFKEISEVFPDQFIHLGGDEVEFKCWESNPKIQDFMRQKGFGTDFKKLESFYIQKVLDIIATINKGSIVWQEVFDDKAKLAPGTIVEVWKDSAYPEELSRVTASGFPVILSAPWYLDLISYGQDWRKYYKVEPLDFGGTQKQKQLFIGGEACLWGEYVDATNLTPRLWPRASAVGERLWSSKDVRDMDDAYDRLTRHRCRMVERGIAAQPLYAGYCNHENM

[8] abbreviates: HeLa, protein HSP90AA1 (HEAT SHOCK PROTEIN 90KDA ALPHA (CYTOSOLIC), CLASS A MEMBER 1 ISOFORM 1.).

Like-named read-outs stand apart in the source and are kept apart here.

T1 sequence (O95373 whole entry): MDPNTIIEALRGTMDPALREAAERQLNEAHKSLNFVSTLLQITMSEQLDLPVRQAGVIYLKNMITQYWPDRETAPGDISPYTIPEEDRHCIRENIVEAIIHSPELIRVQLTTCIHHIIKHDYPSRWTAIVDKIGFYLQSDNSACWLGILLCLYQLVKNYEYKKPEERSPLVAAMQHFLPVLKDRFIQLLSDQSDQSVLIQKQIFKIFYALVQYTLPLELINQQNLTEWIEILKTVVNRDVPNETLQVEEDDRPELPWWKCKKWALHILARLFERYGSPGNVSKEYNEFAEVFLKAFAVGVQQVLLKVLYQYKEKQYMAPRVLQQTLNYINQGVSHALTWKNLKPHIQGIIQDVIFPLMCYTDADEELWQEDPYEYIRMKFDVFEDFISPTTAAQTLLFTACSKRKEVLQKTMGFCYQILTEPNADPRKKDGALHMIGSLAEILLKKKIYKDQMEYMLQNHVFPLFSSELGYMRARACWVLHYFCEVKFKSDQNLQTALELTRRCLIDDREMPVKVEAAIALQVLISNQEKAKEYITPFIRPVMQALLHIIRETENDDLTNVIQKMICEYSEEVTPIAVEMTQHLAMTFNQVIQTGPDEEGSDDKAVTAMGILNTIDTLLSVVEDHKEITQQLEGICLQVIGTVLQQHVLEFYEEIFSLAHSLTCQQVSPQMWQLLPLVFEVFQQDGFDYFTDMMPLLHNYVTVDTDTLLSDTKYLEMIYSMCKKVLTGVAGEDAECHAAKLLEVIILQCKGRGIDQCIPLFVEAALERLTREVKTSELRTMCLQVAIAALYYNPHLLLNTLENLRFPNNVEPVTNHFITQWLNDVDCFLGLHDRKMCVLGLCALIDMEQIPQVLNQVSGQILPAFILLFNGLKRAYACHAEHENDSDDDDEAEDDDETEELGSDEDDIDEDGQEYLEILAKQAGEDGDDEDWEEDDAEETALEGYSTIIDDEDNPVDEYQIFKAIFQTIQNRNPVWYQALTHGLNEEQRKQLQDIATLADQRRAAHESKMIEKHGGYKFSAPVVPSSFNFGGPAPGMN
T3 sequence (Q9Y6M0 42-314): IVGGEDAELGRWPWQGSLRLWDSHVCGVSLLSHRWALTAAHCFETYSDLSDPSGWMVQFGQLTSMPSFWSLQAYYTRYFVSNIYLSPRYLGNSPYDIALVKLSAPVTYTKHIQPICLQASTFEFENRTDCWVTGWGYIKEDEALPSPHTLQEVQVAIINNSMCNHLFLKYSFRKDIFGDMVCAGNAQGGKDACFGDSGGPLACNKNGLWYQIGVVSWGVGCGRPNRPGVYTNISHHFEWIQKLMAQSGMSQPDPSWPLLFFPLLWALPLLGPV

With `Nc1nc2c(c(=O)[nH]1)N(C=O)C(CNc1ccc(C(=O)N[C@@H](CCC(=O)O)C(=O)O)cc1)CN2` (stereo partly shown) [LEU, leucovorin], the “fold changes relative to vehicle control” value was 0.94 in assay [1] (HeLa, protein IPO7); 1.06 in assay [2] (HeLa, protein HSP90AA1); 1 in assay [3] (HeLa, protein PRSS21); 0.88 in assay [4] (HeLa, protein OPA1); 1.05 in assay [5] (HeLa, protein UBA1); 0.99 in assay [6] (HeLa, protein EIF4A1). Also, the “fold changes relative to vehicle control” value in assay [7] (HeLa, protein HEXB) is 0.97.
Consider `Nc1nc2[nH]cc(CCc3ccc(C(=O)N[C@@H](CCC(=O)O)C(=O)O)cc3)c2c(=O)[nH]1` [PTX, pemetrexed], for which the “fold changes relative to vehicle control” value in assay [1] is given as 0.93; in assay [2], 1.13; in assay [3] it was 0.89; in assay [4] it was 0.84; in assay [5], 0.96; in assay [6] it was 1.07. Moreover, the “fold changes relative to vehicle control” value in assay [7] was found to be 1.
For the compound `CCCCCCOc1ccc(Cc2cnc(N)nc2N)cc1` [compound 1], the “fold changes relative to vehicle control” value in assay [1] (protein IPO7, HeLa) was 0.93; in assay [2] (setting [8]), 1.4 fold; in assay [3] (HeLa, protein PRSS21), 1.11; in assay [4] (HeLa, protein OPA1), 0.82; in assay [5] (protein UBA1, HeLa), 0.77; in assay [6] (protein EIF4A1, HeLa), 1.12. In addition, the “fold changes relative to vehicle control” value in assay [7] (HeLa, protein HEXB) is 1.04.
In the case of `CCCCCCOc1cccc(Cc2cnc(N)nc2N)c1` [compound 2], the “fold changes relative to vehicle control” value is 1.09 in assay [1] (protein IPO7, HeLa); 2.39 fold in assay [2] (setting [8]); 1.18 in assay [3] (HeLa, protein PRSS21); 1.02 in assay [4] (HeLa, protein OPA1); 1.62 in assay [5] (protein UBA1, HeLa); 1.75 in assay [6] (protein EIF4A1, HeLa). Further, the “fold changes relative to vehicle control” value in assay [7] (HeLa, protein HEXB) turned out to be 1.06.
With `Nc1nc2cccc(-c3ccccc3)c2n1Cc1ccc(Cl)c(Cl)c1` [compound 3], the “fold changes relative to vehicle control” value came out at 1.17 in assay [1] (protein IPO7, HeLa); 0.94 fold in assay [2] (setting [8]); 1.04 in assay [3] (HeLa, protein PRSS21); 1.01 in assay [4] (HeLa, protein OPA1); 0.75 in assay [5] (protein UBA1, HeLa); 0.8 in assay [6] (protein EIF4A1, HeLa). The “fold changes relative to vehicle control” value in assay [7] (HeLa, protein HEXB) amounted to 0.93.
Regarding `NCCOCCOCC(=O)Nc1nc2ncc(CNc3ccc(C(=O)NC(CCC(=O)O)C(=O)O)cc3)nc2c(=O)[nH]1` (stereo not shown) [compound 6], the “fold changes relative to vehicle control” value is recorded as 0.98 in assay [1] (HeLa, protein IPO7); 1.32 in assay [2] (HeLa, protein HSP90AA1); 0.96 in assay [3] (HeLa, protein PRSS21); 0.87 in assay [4] (HeLa, protein OPA1); 1.15 in assay [5] (HeLa, protein UBA1); 1.27 in assay [6] (HeLa, protein EIF4A1). Further, the “fold changes relative to vehicle control” value in assay [7] (HeLa, protein HEXB) is on record as 1.05.
As to `NCCCNc1ccc(C(=O)NC(CCC(=O)O)C(=O)O)cc1` (stereo not shown) [compound 7], the “fold changes relative to vehicle control” value in assay [1] (HeLa, protein IPO7) is listed as 0.99; in assay [2] (HeLa, protein HSP90AA1), 0.92; in assay [3] (HeLa, protein PRSS21), 0.97; in assay [4] (HeLa, protein OPA1), 0.94; in assay [5] (HeLa, protein UBA1), 0.92; in assay [6] (HeLa, protein EIF4A1), 0.89. In addition, in assay [7] (HeLa, protein HEXB), the “fold changes relative to vehicle control” value was found to be 1.06.
